Test results as given in ChEMBL document CHEMBL3885861, “Open TG-GATES”.

Species: Rattus norvegicus
Assay: Open TG-GATES - Regimen: Daily Repeat
Format: toxicity, organism-based, Sprague-Dawley
Design: regimen Daily Repeat, gender Male, age 6 weeks
Conditions: in vivo, po, route gavage; for APTT / Bas / Eos / Fbg / Hb / Ht / Lym / MCH / MCHC / MCV / Mono / Neu / PT / Plat / RBC / Ret / WBC: tissue Blood; for KIDNEY_L / KIDNEY_R / KIDNEY_TOTAL: tissue Kidney; for LIVER: tissue Liver; for A/G / ALP / ALT / AST / BUN / CRE / Ca / Cl / DBIL / GLC / IP / K / LDH / Na / PL / RALB / TBIL / TC / TG / TP / gamma-GTP: tissue Plasma
[1] = 0 mg/kg, 72 h, dose level Control, time 3 day
[2] = 0 mg/kg, […], dose level Control, time 7 day
[3] = 0 mg/kg, […], dose level Control, time 14 day
[4] = 0 mg/kg, […], dose level Control, time 28 day
[5] = 100 mg/kg, 72 h, dose level Low, time 3 day
[6] = 100 mg/kg, […], dose level Low, time 7 day
[7] = 100 mg/kg, […], dose level Low, time 14 day
[8] = 100 mg/kg, […], dose level Low, time 28 day

## CC(S)C(=O)NCC(=O)O (centres undefined) [TIOPRONIN]
[1]
  TERMINAL_BW: 222.4 g
  APTT: 22.6 s
  Bas: 0%
  Eos: 1%
  Fbg: 300.2 mg/dL
  Hb: 13.5 g/dL
  Ht: 40.8%
  Lym: 81.6%
  MCH: 20.9 pg
  MCHC: 33.1%
  MCV: 63 fL
  Mono: 2.6%
  Neu: 14.2%
  PT: 15.7 s
  Plat: 112.4 x10_4/uL
  RBC: 647.2 x10_4/ul
  Ret: 6.8%
  WBC: 142.5 x10_2/uL
  KIDNEY_L: 1 g
  KIDNEY_R: 1 g
  KIDNEY_TOTAL: 2 g
  LIVER: 10.5 g
  A/G: 1.1
  ALP: 1395.4 IU/L
  ALT: 46.2 IU/L
  AST: 73.8 IU/L
  BUN: 17.4 mg/dL
  CRE: 0.2 mg/dL
  Ca: 10.5 mg/dL
  Cl: 106 meq/L
  DBIL: 0 mg/dL
  GLC: 202 mg/dL
  IP: 7.2 mg/dL
  K: 4.3 meq/L
  LDH: 188 IU/L
  Na: 140.8 meq/L
  PL: 137.6 mg/dL
  RALB: 2.9 g/dL
  TBIL: 0.004 mg/dL
  TC: 75 mg/dL
  TG: 86.6 mg/dL
  TP: 5.5 g/dL
  gamma-GTP: 1.6 IU/L
[2]
  TERMINAL_BW: 250.2 g
  APTT: 21.4 s
  Bas: 0%
  Eos: 0.8%
  Fbg: 311.2 mg/dL
  Hb: 13.8 g/dL
  Ht: 40.6%
  Lym: 83%
  MCH: 20.7 pg
  MCHC: 33.9%
  MCV: 61 fL
  Mono: 2%
  Neu: 13.4%
  PT: 15.4 s
  Plat: 118.9 x10_4/uL
  RBC: 667 x10_4/ul
  Ret: 5.6%
  WBC: 124.9 x10_2/uL
  KIDNEY_L: 1.1 g
  KIDNEY_R: 1.1 g
  KIDNEY_TOTAL: 2.2 g
  LIVER: 11.5 g
  A/G: 1.2
  ALP: 1704.2 IU/L
  ALT: 37.4 IU/L
  AST: 68.6 IU/L
  BUN: 18.8 mg/dL
  CRE: 0.2 mg/dL
  Ca: 10.7 mg/dL
  Cl: 107.2 meq/L
  DBIL: 0 mg/dL
  GLC: 191.8 mg/dL
  IP: 7.1 mg/dL
  K: 4.5 meq/L
  LDH: 146.4 IU/L
  Na: 141.6 meq/L
  PL: 158.6 mg/dL
  RALB: 3 g/dL
  TBIL: 0.004 mg/dL
  TC: 83.2 mg/dL
  TG: 107.2 mg/dL
  TP: 5.4 g/dL
  gamma-GTP: 1.8 IU/L
[3]
  TERMINAL_BW: 315.5 g
  APTT: 22.9 s
  Bas: 0%
  Eos: 1%
  Fbg: 299.2 mg/dL
  Hb: 14.1 g/dL
  Ht: 40.4%
  Lym: 82.6%
  MCH: 20.5 pg
  MCHC: 34.8%
  MCV: 58.9 fL
  Mono: 2.2%
  Neu: 14%
  PT: 15.6 s
  Plat: 118.7 x10_4/uL
  RBC: 686.8 x10_4/ul
  Ret: 5.3%
  WBC: 128.8 x10_2/uL
  KIDNEY_L: 1.2 g
  KIDNEY_R: 1.2 g
  KIDNEY_TOTAL: 2.4 g
  LIVER: 13.7 g
  A/G: 1.3
  ALP: 1485.6 IU/L
  ALT: 37 IU/L
  AST: 63.4 IU/L
  BUN: 19 mg/dL
  CRE: 0.2 mg/dL
  Ca: 10.3 mg/dL
  Cl: 105 meq/L
  DBIL: 0 mg/dL
  GLC: 205.8 mg/dL
  IP: 6.9 mg/dL
  K: 4.5 meq/L
  LDH: 157.8 IU/L
  Na: 139.2 meq/L
  PL: 135.6 mg/dL
  RALB: 3.1 g/dL
  TBIL: 0.006 mg/dL
  TC: 63.6 mg/dL
  TG: 135.6 mg/dL
  TP: 5.6 g/dL
  gamma-GTP: 2.6 IU/L
[4]
  TERMINAL_BW: 385.3 g
  APTT: 24.5 s
  Bas: 0%
  Eos: 1%
  Fbg: 305.6 mg/dL
  Hb: 15.3 g/dL
  Ht: 43.2%
  Lym: 81.8%
  MCH: 19.6 pg
  MCHC: 35.3%
  MCV: 55.5 fL
  Mono: 1.8%
  Neu: 14.2%
  PT: 16 s
  Plat: 91.2 x10_4/uL
  RBC: 778.2 x10_4/ul
  Ret: 2.8%
  WBC: 114.1 x10_2/uL
  KIDNEY_L: 1.3 g
  KIDNEY_R: 1.4 g
  KIDNEY_TOTAL: 2.7 g
  LIVER: 15.9 g
  A/G: 1.2
  ALP: 1102.4 IU/L
  ALT: 35 IU/L
  AST: 61.4 IU/L
  BUN: 19.2 mg/dL
  CRE: 0.2 mg/dL
  Ca: 10.8 mg/dL
  Cl: 106.8 meq/L
  DBIL: 0 mg/dL
  GLC: 202.6 mg/dL
  IP: 6.7 mg/dL
  K: 4.1 meq/L
  LDH: 152.6 IU/L
  Na: 143.2 meq/L
  PL: 151.4 mg/dL
  RALB: 3.3 g/dL
  TBIL: 0.01 mg/dL
  TC: 78.2 mg/dL
  TG: 135.4 mg/dL
  TP: 5.9 g/dL
  gamma-GTP: 2 IU/L
[5]
  TERMINAL_BW: 228.4 g
  APTT: 22 s
  Bas: 0%
  Eos: 1%
  Fbg: 299.8 mg/dL
  Hb: 13 g/dL
  Ht: 39.1%
  Lym: 77.8%
  MCH: 19.9 pg
  MCHC: 33.2%
  MCV: 60.1 fL
  Mono: 2.8%
  Neu: 17.8%
  PT: 15.6 s
  Plat: 120.9 x10_4/uL
  RBC: 652 x10_4/ul
  Ret: 6.7%
  WBC: 105.6 x10_2/uL
  KIDNEY_L: 1 g
  KIDNEY_R: 1 g
  KIDNEY_TOTAL: 2 g
  LIVER: 10.8 g
  A/G: 1.2
  ALP: 1580 IU/L
  ALT: 43.6 IU/L
  AST: 73.6 IU/L
  BUN: 17 mg/dL
  CRE: 0.2 mg/dL
  Ca: 10.6 mg/dL
  Cl: 106.4 meq/L
  DBIL: 0 mg/dL
  GLC: 189.4 mg/dL
  IP: 7.4 mg/dL
  K: 4.4 meq/L
  LDH: 165.2 IU/L
  Na: 140.8 meq/L
  PL: 139.8 mg/dL
  RALB: 3.1 g/dL
  TBIL: 0.008 mg/dL
  TC: 76.6 mg/dL
  TG: 107.2 mg/dL
  TP: 5.6 g/dL
  gamma-GTP: 1.6 IU/L
[6]
  TERMINAL_BW: 255.1 g
  APTT: 22.4 s
  Bas: 0%
  Eos: 0.8%
  Fbg: 305.8 mg/dL
  Hb: 13.5 g/dL
  Ht: 39.7%
  Lym: 79.2%
  MCH: 20.9 pg
  MCHC: 34.1%
  MCV: 61.4 fL
  Mono: 2.4%
  Neu: 16.4%
  PT: 15.8 s
  Plat: 125.6 x10_4/uL
  RBC: 647 x10_4/ul
  Ret: 6.1%
  WBC: 109.7 x10_2/uL
  KIDNEY_L: 1.1 g
  KIDNEY_R: 1.1 g
  KIDNEY_TOTAL: 2.2 g
  LIVER: 11.2 g
  A/G: 1.1
  ALP: 1665.2 IU/L
  ALT: 37.2 IU/L
  AST: 66.8 IU/L
  BUN: 16.8 mg/dL
  CRE: 0.1 mg/dL
  Ca: 10.6 mg/dL
  Cl: 107.4 meq/L
  DBIL: 0 mg/dL
  GLC: 189.8 mg/dL
  IP: 7.3 mg/dL
  K: 4.2 meq/L
  LDH: 146.2 IU/L
  Na: 141.8 meq/L
  PL: 139.4 mg/dL
  RALB: 3 g/dL
  TBIL: 0.002 mg/dL
  TC: 70.6 mg/dL
  TG: 103.2 mg/dL
  TP: 5.6 g/dL
  gamma-GTP: 2.2 IU/L
[7]
  TERMINAL_BW: 321.9 g
  APTT: 24.5 s
  Bas: 0%
  Eos: 1%
  Fbg: 297 mg/dL
  Hb: 14.3 g/dL
  Ht: 41.1%
  Lym: 80.2%
  MCH: 20.8 pg
  MCHC: 34.8%
  MCV: 59.9 fL
  Mono: 2.4%
  Neu: 15.4%
  PT: 15.6 s
  Plat: 116.6 x10_4/uL
  RBC: 686.2 x10_4/ul
  Ret: 5.6%
  WBC: 147.7 x10_2/uL
  KIDNEY_L: 1.2 g
  KIDNEY_R: 1.3 g
  KIDNEY_TOTAL: 2.5 g
  LIVER: 14.1 g
  A/G: 1.2
  ALP: 1412.8 IU/L
  ALT: 37.4 IU/L
  AST: 66.6 IU/L
  BUN: 18.2 mg/dL
  CRE: 0.2 mg/dL
  Ca: 10.4 mg/dL
  Cl: 107.4 meq/L
  DBIL: 0 mg/dL
  GLC: 199 mg/dL
  IP: 6.4 mg/dL
  K: 4.3 meq/L
  LDH: 135.6 IU/L
  Na: 141.6 meq/L
  PL: 134 mg/dL
  RALB: 3.1 g/dL
  TBIL: 0.006 mg/dL
  TC: 65.4 mg/dL
  TG: 121 mg/dL
  TP: 5.7 g/dL
  gamma-GTP: 2 IU/L
[8]
  TERMINAL_BW: 376.7 g
  APTT: 25.2 s
  Bas: 0%
  Eos: 1.2%
  Fbg: 325.8 mg/dL
  Hb: 15.2 g/dL
  Ht: 43.1%
  Lym: 80.6%
  MCH: 19.6 pg
  MCHC: 35.2%
  MCV: 55.6 fL
  Mono: 2.6%
  Neu: 14.6%
  PT: 15.9 s
  Plat: 94 x10_4/uL
  RBC: 775.4 x10_4/ul
  Ret: 2.8%
  WBC: 122.4 x10_2/uL
  KIDNEY_L: 1.3 g
  KIDNEY_R: 1.4 g
  KIDNEY_TOTAL: 2.7 g
  LIVER: 15.3 g
  A/G: 1.2
  ALP: 1019.8 IU/L
  ALT: 34.6 IU/L
  AST: 58.2 IU/L
  BUN: 19.2 mg/dL
  CRE: 0.2 mg/dL
  Ca: 10.8 mg/dL
  Cl: 106.8 meq/L
  DBIL: 0 mg/dL
  GLC: 191 mg/dL
  IP: 6.2 mg/dL
  K: 4 meq/L
  LDH: 115.8 IU/L
  Na: 142.8 meq/L
  PL: 142.4 mg/dL
  RALB: 3.2 g/dL
  TBIL: 0.008 mg/dL
  TC: 77.4 mg/dL
  TG: 136.4 mg/dL
  TP: 5.9 g/dL
  gamma-GTP: 1.6 IU/L
